Data taken from the supplement of paper PMC10307832.

Assays:
Experiment in all cases: relative viability (nuclei count vs DMSO), 5 days (fraction); higher = more cells survive
HCC-366 = tested on: HCC-366
Summary of the method: (§1)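 Lung cancer cell lines, seeded in 1536-well plates, were treated the following day by pin tool with a single drug or with five library-drug doses (not always all listed) in √10 steps on top of a fixed anchor-drug dose. Cells were fixed and nuclei stained in one step after 5 days, and nuclei were counted. Relative viability is the nuclei count for treated wells divided by that for vehicle wells, reported as medians of duplicate plates.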

NCI-H1792 = tested on: NCI-H1792
Summary of the method: as §1

NCI-H2087 = tested on: NCI-H2087
Summary of the method: as §1

NCI-H647 = tested on: NCI-H647
Summary of the method: as §1

SK-MES-1 = tested on: SK-MES-1
Summary of the method: as §1

EKVX = tested on: EKVX
Summary of the method: as §1

SK-LU-1 = tested on: SK-LU-1
Summary of the method: as §1

LOU-NH91 = tested on: LOU-NH91
Summary of the method: as §1

HCC-827 = tested on: HCC-827
Summary of the method: as §1

BEN = tested on: BEN
Summary of the method: as §1

NCI-H2009 = tested on: NCI-H2009
Summary of the method: as §1

NCI-H2170 = tested on: NCI-H2170
Summary of the method: as §1

LC-2-ad = tested on: LC-2-ad
Summary of the method: as §1

NCI-H1395 = tested on: NCI-H1395
Summary of the method: as §1

NCI-H661 = tested on: NCI-H661
Summary of the method: as §1

NCI-H1355 = tested on: NCI-H1355
Summary of the method: as §1

NCI-H1734 = tested on: NCI-H1734
Summary of the method: as §1

NCI-H1437 = tested on: NCI-H1437
Summary of the method: as §1

NCI-H2405 = tested on: NCI-H2405
Summary of the method: as §1

NCI-H2228 = tested on: NCI-H2228
Summary of the method: as §1

NCI-H596 = tested on: NCI-H596
Summary of the method: as §1

HARA = tested on: HARA
Summary of the method: as §1

NC(=O)Nc1cc(-c2cccc(F)c2)sc1C(=O)N[C@H]1CCCNC1 [AZD7762] + CS(=O)(=O)CCNCc1ccc(-c2ccc3ncnc(Nc4ccc(OCc5cccc(F)c5)c(Cl)c4)c3c2)o1 [Lapatinib] (partner 2 µM) gave a relative viability (HCC-366; first compound 0.01 µM) of 0.991, a relative viability (HCC-366; first compound 0.03162 µM) of 1.12 and a relative viability (HCC-366; first compound 0.1 µM) of 0.879. The relative viability (HCC-366; first compound 0.3162 µM) was 0.375, the relative viability (HCC-366; first compound 1 µM) was 0.0771 and the relative viability (NCI-H1792; first compound 0.01 µM) was 0.965. The relative viability (NCI-H1792; first compound 0.03162 µM) was 0.911, the relative viability (NCI-H1792; first compound 0.1 µM) was 0.925 and the relative viability (NCI-H1792; first compound 0.3162 µM) was 0.945. It also gave a relative viability (NCI-H1792; first compound 1 µM) of 1.05, a relative viability (NCI-H2087; first compound 0.01 µM) of 1.23 and a relative viability (NCI-H2087; first compound 0.03162 µM) of 1.01. For the same compound, the relative viability (NCI-H2087; first compound 0.1 µM) was 1.01, the relative viability (NCI-H2087; first compound 0.3162 µM) was 1.24 and the relative viability (NCI-H2087; first compound 1 µM) was 1.16. It also gave a relative viability (NCI-H647; first compound 0.01 µM) of 1.14, a relative viability (NCI-H647; first compound 0.03162 µM) of 1.12 and a relative viability (NCI-H647; first compound 0.1 µM) of 0.963. The relative viability (NCI-H647; first compound 0.3162 µM) was 0.519, the relative viability (NCI-H647; first compound 1 µM) was 0.0944 and the relative viability (SK-MES-1; first compound 0.01 µM) was 0.434. The relative viability (SK-MES-1; first compound 0.03162 µM) was 0.396, the relative viability (SK-MES-1; first compound 0.1 µM) was 0.457 and the relative viability (SK-MES-1; first compound 0.3162 µM) was 0.468. It also gave a relative viability (SK-MES-1; first compound 1 µM) of 0.469, a relative viability (EKVX; first compound 0.01 µM) of 0.204 and a relative viability (EKVX; first compound 0.03162 µM) of 0.232. The relative viability (EKVX; first compound 0.1 µM) was 0.206, the relative viability (EKVX; first compound 0.3162 µM) was 0.253 and the relative viability (EKVX; first compound 1 µM) was 0.166. For the same compound, the relative viability (SK-LU-1; first compound 0.01 µM) was 0.943, the relative viability (SK-LU-1; first compound 0.03162 µM) was 0.714 and the relative viability (SK-LU-1; first compound 0.1 µM) was 0.456. It also gave a relative viability (SK-LU-1; first compound 0.3162 µM) of 0.276, a relative viability (SK-LU-1; first compound 1 µM) of 0.217 and a relative viability (LOU-NH91; first compound 0.01 µM) of 0.792. It also gave a relative viability (LOU-NH91; first compound 0.03162 µM) of 0.791, a relative viability (LOU-NH91; first compound 0.1 µM) of 0.753 and a relative viability (LOU-NH91; first compound 0.3162 µM) of 0.572. It also gave a relative viability (LOU-NH91; first compound 1 µM) of 0.639, a relative viability (HCC-827; first compound 0.01 µM) of 0.202 and a relative viability (HCC-827; first compound 0.03162 µM) of 0.177. The relative viability (HCC-827; first compound 0.1 µM) was 0.189, the relative viability (HCC-827; first compound 0.3162 µM) was 0.178 and the relative viability (HCC-827; first compound 1 µM) was 0.197. For the same compound, the relative viability (BEN; first compound 0.01 µM) was 0.788, the relative viability (BEN; first compound 0.03162 µM) was 0.623 and the relative viability (BEN; first compound 0.1 µM) was 0.566. The relative viability (BEN; first compound 0.3162 µM) was 0.833, the relative viability (BEN; first compound 1 µM) was 0.488 and the relative viability (NCI-H2009; first compound 0.01 µM) was 1.25. The relative viability (NCI-H2009; first compound 0.03162 µM) was 1.04, the relative viability (NCI-H2009; first compound 0.1 µM) was 1 and the relative viability (NCI-H2009; first compound 0.3162 µM) was 0.896. The relative viability (NCI-H2009; first compound 1 µM) was 0.518, the relative viability (NCI-H2170; first compound 0.01 µM) was 0.289 and the relative viability (NCI-H2170; first compound 0.03162 µM) was 0.256. For the same compound, the relative viability (NCI-H2170; first compound 0.1 µM) was 0.26, the relative viability (NCI-H2170; first compound 0.3162 µM) was 0.263 and the relative viability (NCI-H2170; first compound 1 µM) was 0.257. The relative viability (LC-2-ad; first compound 0.01 µM) was 1.05, the relative viability (LC-2-ad; first compound 0.03162 µM) was 1.04 and the relative viability (LC-2-ad; first compound 0.1 µM) was 0.47. It also gave a relative viability (LC-2-ad; first compound 0.3162 µM) of 0.392, a relative viability (LC-2-ad; first compound 1 µM) of 0.258 and a relative viability (NCI-H1395; first compound 0.01 µM) of 1.04. The relative viability (NCI-H1395; first compound 0.03162 µM) was 1.06, the relative viability (NCI-H1395; first compound 0.1 µM) was 1.05 and the relative viability (NCI-H1395; first compound 0.3162 µM) was 0.543. It also gave a relative viability (NCI-H1395; first compound 1 µM) of 0.362, a relative viability (NCI-H661; first compound 0.01 µM) of 0.6 and a relative viability (NCI-H661; first compound 0.03162 µM) of 0.546. It also gave a relative viability (NCI-H661; first compound 0.1 µM) of 0.512, a relative viability (NCI-H661; first compound 0.3162 µM) of 0.405 and a relative viability (NCI-H661; first compound 1 µM) of 0.28. For the same compound, the relative viability (NCI-H1355; first compound 0.01 µM) was 1, the relative viability (NCI-H1355; first compound 0.03162 µM) was 0.993 and the relative viability (NCI-H1355; first compound 0.1 µM) was 1.01. For the same compound, the relative viability (NCI-H1355; first compound 0.3162 µM) was 1.02, the relative viability (NCI-H1355; first compound 1 µM) was 0.719 and the relative viability (NCI-H1734; first compound 0.01 µM) was 0.974. The relative viability (NCI-H1734; first compound 0.03162 µM) was 1.16, the relative viability (NCI-H1734; first compound 0.1 µM) was 1.13 and the relative viability (NCI-H1734; first compound 0.3162 µM) was 0.946. The relative viability (NCI-H1734; first compound 1 µM) was 0.67, the relative viability (NCI-H1437; first compound 0.01 µM) was 0.809 and the relative viability (NCI-H1437; first compound 0.03162 µM) was 0.647. For the same compound, the relative viability (NCI-H1437; first compound 0.1 µM) was 0.875, the relative viability (NCI-H1437; first compound 0.3162 µM) was 0.841 and the relative viability (NCI-H1437; first compound 1 µM) was 0.526. It also gave a relative viability (NCI-H2405; first compound 0.01 µM) of 1.11, a relative viability (NCI-H2405; first compound 0.03162 µM) of 1.41 and a relative viability (NCI-H2405; first compound 0.1 µM) of 0.998. The relative viability (NCI-H2405; first compound 0.3162 µM) was 1.01, the relative viability (NCI-H2405; first compound 1 µM) was 0.422 and the relative viability (NCI-H2228; first compound 0.01 µM) was 1.28. The relative viability (NCI-H2228; first compound 0.03162 µM) was 1.46, the relative viability (NCI-H2228; first compound 0.1 µM) was 1.22 and the relative viability (NCI-H2228; first compound 0.3162 µM) was 0.34. The relative viability (NCI-H2228; first compound 1 µM) was 0.231, the relative viability (NCI-H596; first compound 0.01 µM) was 1.11 and the relative viability (NCI-H596; first compound 0.03162 µM) was 1.01. It also gave a relative viability (NCI-H596; first compound 0.1 µM) of 1.13, a relative viability (NCI-H596; first compound 0.3162 µM) of 1.11 and a relative viability (NCI-H596; first compound 1 µM) of 0.891. The relative viability (HARA; first compound 0.01 µM) was 0.851, the relative viability (HARA; first compound 0.03162 µM) was 0.763 and the relative viability (HARA; first compound 0.1 µM) was 0.759. It also gave a relative viability (HARA; first compound 0.3162 µM) of 0.781 and a relative viability (HARA; first compound 1 µM) of 0.256.
